Values of other authors, collected in patent publication US20090012010A1, “Amino acid derivatives as calcium channel blockers” (Neuromed Phramaceuticals Ltd., priority 2007, published 2009).

System: T-type calcium channels

Question: Which “fold selective for T-type over L-type channels” value does the source give for COCC(=O)O[C@]1(CCN(C)CCCc2nc3ccccc3[nH]2)CCc2cc(F)ccc2[C@@H]1C(C)C [Mibefradil] here?
Answer: 10-30 fold
